Results: patent US20080194524A1, “Compounds For the Inhibition of Undesired Cell Proliferation and Use Thereof” (JERINI AG, priority 2003, published 2008)
Where a SMILES comes first, the peptide text is derived from it. [ ]: non-standard residue; d: D form. The star is where a group is joined. 2Nal = N[C@@H](Cc1ccc2ccccc2c1)C(=O)O; Benzyl(3,4-Cl2) = Clc1ccc(C*)cc1Cl; Benzyl(4-Cl) = Clc1ccc(C*)cc1; Pip = O=C(O)[C@@H]1CCCCN1; CH2PO3H2 = O=P(O)(O)C*; Mpa = O=C(O)CCS

Molecular target: hPin1 (Protein interacting with NIMA (-kinase)) (Homo sapiens, UniProt Q13526)
Assay: protease-coupled PPIase assay, hPin1
Format: biochemical
Settings: not given

Chain of hPin1 (Protein interacting with NIMA (-kinase)) (Q13526 whole entry): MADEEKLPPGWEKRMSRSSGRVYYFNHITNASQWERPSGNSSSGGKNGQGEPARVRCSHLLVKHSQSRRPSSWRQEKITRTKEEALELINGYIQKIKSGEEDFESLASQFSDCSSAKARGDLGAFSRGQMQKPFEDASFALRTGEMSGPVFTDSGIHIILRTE

CC(=O)N[C@@H](Cc1csc2ccccc12)C(=O)N[C@@H](CSCP(=O)(O)O)C(=O)N1CCCC[C@H]1C(=O)N[C@@H](Cc1ccc2ccccc2c1)C(N)=O [Compound 2, {2-(2-Acetylamino-3-benzo[b]thiophen-3-yl-propionylamino)-3-[2-(1-carbamoyl-2-naphthalen-2-yl-ethylcarbamoyl)-piperidin-1-yl]-3-oxo-propylsulfanylmethyl}-phosphonic acid] and CC(=O)N1C(=O)SCC1C(=O)N[C@@H](CSCP(=O)(O)O)C(=O)N1CCCC[C@H]1C(=O)N[C@@H](Cc1ccc2ccccc2c1)C(N)=O (stereo in doubt) [Compound 42, {2-[(3-Acetyl-2-oxo-thiazolidine-4-carbonyl)-amino]-3-[2-(1-carbamoyl-2-naphthalen-2-yl-ethylcarbamoyl)-piperidin-1-yl]-3-oxo-propylsulfanylmethyl}-phosphonic acid] cannot be ordered by IC50: under 1000 nM for the first, under 1000 nM for the second.

Same assay, conditions: hPin1 6 nM; substrate Ac-Ala-Ala-Ser(PO3H2)-Pro-Arg-pNA, trypsin; 35 mM HEPES pH 7.8, 6° C.; read-out: Specificity of the inhibition with rotamases, Target T-1 (IC50 class)

NC(=O)[C@H](Cc1ccc2ccccc2c1)NC(=O)[C@@H]1CCCCN1C(=O)[C@H](CSCP(=O)(O)O)NC(=O)CCC(=O)c1ccc(Cl)cc1 [Compound 37, {3-[2-(1-Carbamoyl-2-naphthalen-2-yl-ethylcarbamoyl)-piperidin-1-yl]-2-[4-(4-chloro-phenyl)-4-oxo-butyrylamino]-3-oxo-propylsulfanylmethyl}-phosphonicacid] and NC(=O)[C@H](Cc1ccc2ccccc2c1)NC(=O)[C@@H]1CCCCN1C(=O)[C@H](CSCP(=O)(O)O)NC(=O)CCCC(=O)c1ccc(Cl)cc1 [Compound 7, {3-[2-(1-Carbamoyl-2-naphthalen-2-yl-ethylcarbamoyl)-piperidin-1-yl]-2-[5-(4-chloro-phenyl)-5-oxo-pentanoylamino]-3-oxo-propylsulfanylmethyl}-phosphonicacid] cannot be ordered by IC50: under 1000 nM for the first, under 1000 nM for the second.

Compared with NC(=O)[C@H](Cc1ccc2ccccc2c1)NC(=O)[C@@H]1CCCCN1C(=O)[C@H](CSCP(=O)(O)O)NC(=O)CCSCc1ccc(Cl)c(Cl)c1 [Compound 6, {3-[2-(1-Carbamoyl-2-naphthalen-2-yl-ethylcarbamoyl)-piperidin-1-yl]-2-[3-(3.4-dichloro-benzylsulfanyl)-propionylamino]-3-oxo-propylsulfanylmethyl}-phosphonic acid] ([Mpa](Benzyl(3,4-Cl2))C(CH2PO3H2)[Pip][2Nal]-NH2), NC(=O)[C@H](Cc1ccc2ccccc2c1)NC(=O)[C@@H]1CCCCN1C(=O)[C@H](CSCP(=O)(O)O)NC(=O)CCSCc1ccc(Cl)cc1 [Compound 5, {3-[2-(1-Carbamoyl-2-naphthalen-2-yl-ethylcarbamoyl)-piperidin-1-yl]-2-[3-(4-chloro-benzylsulfanyl)-propionylamino]-3-oxo-propylsulfanylmethyl}-phosphonicacid] ([Mpa](Benzyl(4-Cl))C(CH2PO3H2)[Pip][2Nal]-NH2) is lower in IC50: 1000 to 10000 nM for the first, under 1000 nM for the second. The second is the more potent here.

NC(=O)[C@H](Cc1ccc2ccccc2c1)NC(=O)[C@@H]1CCCCN1C(=O)[C@H](CSCP(=O)(O)O)NC(=O)Cc1ccccc1 [Compound 21, {3-[2-(1-Carbamoyl-2-naphthalen-2-yl-ethylcarbamoyl)-piperidin-1-yl]-3-oxo-2-phenylacetylamino-propylsulfanylmethyl}-phosphonicacid] and NC(=O)[C@H](Cc1ccc2ccccc2c1)NC(=O)[C@@H]1CCCCN1C(=O)[C@H](CSCP(=O)(O)O)NC(=O)Cc1ccc(-c2ccccc2)cc1 [Compound 24, {2-(2-Biphenyl-4-yl-acetylamino)-3-[2-(1-carbamoyl-2-naphthalen-2-yl-ethylcarbamoyl)-piperidin-1-yl]-3-oxo-propylsulfanylmethyl}-phosphonic acid] cannot be ordered by IC50: under 1000 nM for the first, under 1000 nM for the second.

First: NC(=O)[C@H](Cc1ccc2ccccc2c1)NC(=O)[C@@H]1CCCCN1C(=O)[C@H](COCP(=O)(O)O)NC(=O)OCC1c2ccccc2-c2ccccc21 [Compound 4, [3-[2-(1-Carbamoyl-2-naphthalen-2-yl-ethylcarbamoyl)-piperidin-1-yl]-2-(9H-fluoren-9-ylmethoxycarbonylamino)-3-oxo-propoxymethyl]-phosphonic acid]
Second: NC(=O)[C@H](Cc1ccc2ccccc2c1)NC(=O)[C@@H]1CCCCN1C(=O)[C@H](CSCP(=O)(O)O)NS(=O)(=O)c1ccccc1 [Compound 48, {2-Benzenesulfonylamino-3-[2-(1-carbamoyl-2-naphthalen-2-yl-ethylcarbamoyl)-piperidin-1-yl]-3-oxo-propylsulfanylmethyl}-phosphonic acid]
The IC50 of the first is higher: 1000 to 10000 nM for the first, under 1000 nM for the second. The second is the more potent here.

CC(=O)N[C@@H](Cc1csc2ccccc12)C(=O)N[C@@H](CSCP(=O)(O)O)C(=O)N(C)NC(=O)N[C@@H](Cc1ccc2ccccc2c1)C(N)=O [Compound 27, Ac-Bta-Cys(CH2—P(O)(OH)2)-NMeazaGly-2Nal-NH2] and COc1cccc(CC(=O)N[C@@H](CSCP(=O)(O)O)C(=O)N2CCCC[C@H]2C(=O)N[C@@H](Cc2ccc3ccccc3c2)C(N)=O)c1 [Compound 61, {3-[2-(1-Carbamoyl-2-naphthalen-2-yl-ethylcarbamoyl)-piperidin-1-yl]-2-[2-(3-methoxy-phenyl)-acetylamino]-3-oxo-propylsulfanylmethyl}-phosphonicacid] cannot be ordered by IC50: under 1000 nM for the first, under 1000 nM for the second.

First: NC(=O)[C@H](Cc1ccc2ccccc2c1)NC(=O)[C@@H]1CCCCN1C(=O)[C@H](CSCP(=O)(O)O)NS(=O)(=O)CCCc1ccccc1 [Compound 50, [3-[2-(1-Carbamoyl-2-naphthalen-2-yl-ethylcarbamoyl)-piperidin-1-yl]-3-oxo-2-(3-phenyl-propane-1-sulfonylamino)-propylsulfanylmethyl]-phosphonicacid]
Second: CS(=O)(=O)N[C@@H](CSCP(=O)(O)O)C(=O)N1CCCC[C@H]1C(=O)N[C@@H](Cc1ccc2ccccc2c1)C(N)=O [Compound 51, {3-[2-(1-Carbamoyl-2-naphthalen-2-yl-ethylcarbamoyl)-piperidin-1-yl]-2-methanesulfonylamino-3-oxo-propylsulfanylmethyl}-phosphonic acid]
The IC50 of the first is lower: under 1000 nM for the first, 1000 to 10000 nM for the second. The first is the more potent here.

O=C(NC(Cc1ccc2ccccc2c1)c1ccccn1)[C@@H]1CCCCN1C(=O)CSCP(=O)(O)O (stereo partly drawn) [Compound 77, {2-[2-(2-Naphthalen-2-yl-1-pyridin-2-yl-ethylcarbamoyl)-piperidin-1-yl]-2-oxo-ethylsulfanylmethyl}-phosphonicacid] and NC(=O)[C@H](Cc1ccc2ccccc2c1)NC(=O)[C@@H]1CCCCN1C(=O)CSCP(=O)(O)O [Compound 28, {2-[2-(1-Carbamoyl-2-naphthalen-2-yl-ethylcarbamoyl)-piperidin-1-yl]-2-oxo-ethylsulfanylmethyl}-phosphonic acid] cannot be ordered by IC50: under 1000 nM for the first, under 1000 nM for the second.

First: NC(=O)[C@H](Cc1ccc2ccccc2c1)NC(=O)[C@@H]1CCCCN1C(=O)[C@H](CSCP(=O)(O)O)NC(=O)Cc1ccc2c(c1)OCO2 [Compound 56, {2-(2-Benzo[1.3]dioxol-5-yl-acetylamino)-3-[2-(1-carbamoyl-2-naphthalen-2-yl-ethylcarbamoyl)-piperidin-1-yl]-3-oxo-propylsulfanylmethyl}-phosphonic acid]
Second: O=C(NCCCc1ccccc1)[C@@H]1CCCCN1C(=O)CSCP(=O)(O)O [Compound 68, {2-Oxo-2-[2-(3-phenyl-propylcarbamoyl)-piperidin-1-yl]-ethylsulfanylmethyl}-phosphonicacid]
The IC50 of the first is lower: under 1000 nM for the first, 1000 to 10000 nM for the second.
